Data on 1 compound can be found in patent publication US20050085447A1, “Pyrido[3,4-d]pyrimidine derivatives as matrix metalloproteinase-13 inhibitors” (Warner-Lambert Company LLC, priority 2003, published 2005).

For this experiment, the system named is male Wistar rats. The experiment is described as follows: Monosodium iodoacetate-induced osteoarthritis in rat model of cartilage damage (MIA Rat). The class given is in vivo. To be noted: for inhibition of cartilage erosion (surface area of erosion) versus vehicle control / rats in the treatment group that exhibited no cartilage erosion: 4 weeks. The source says:
One end result of the induction of osteoarthritis in this model, as determined by histologic analysis, is the development of an osteoarthritic condition within the affected joint, as characterized by the loss of Toluidine blue staining and formation of osteophytes. Associated with the histologic changes is a concentration-dependent degradation of joint cartilage, as evidenced by affects on hind-paw weight distribution of the limb containing the affected joint, the presence of increased amounts of proteoglycan or hydroxyproline in the joint upon biochemical analysis, or histopathological analysis of the osteoarthritic lesions.
In the MIA Rat model on Day 0, the hind-paw weight differentials between the right arthritic joint and the left healthy joint of male Wistar rats (150 g) were determined with an incapacitance tester, model 2KG (Linton Instrumentation, Norfolk, United Kingdom). […] Then the rats were anesthetized with isofluorine, and the right, hind leg knee joint was injected with 1.0 mg of mono-iodoacetate (“MIA”) through the infrapatellar ligament. […] The rats were further administered either the compound of Compound Example 1 or vehicle (in the instant case, water) daily for 14 days or 28 days. The compound of Compound Example 1 was administered at doses of 1, 3, 10, and 30 milligrams per kilogram of rat per day, but invention compounds may be administered at other doses such as, for example, 60 mg/kg/day, 90-mg/kg/day, or 100 mg/kg/day according to the requirements of the compound being studied. It is well within the level of ordinary skill in the pharmaceutical arts to determine a proper dosage of an invention compound in this model.
Generally, an invention compound may be administered in this model by oral administration, but optionally intravenous administration via an osmotic pump could be employed. After 7 and 14 days for a two-week study, or 7, 14, and 28 days for a four-week study, the hind-paw weight distribution may be determined. […] This change in weight distribution was proportional to the degree of joint cartilage damage. Percent inhibition of a change in hind paw joint function was calculated as the percent change in hind-paw weight distribution for treated animals versus control animals. For example, for a two week study,
In the present study the compound of Compound Example 1 was administered perorally, and hind-paw weight differentials were determined at both 2 and 4 weeks. Further, in order to detect the presence of erosion of cartilage in the joints, the animals in the above study were sacrificed at 4 weeks, and the presence or absence of cartilage erosion was determined. The proportion of subjects without hind limb erosions was determined via an Exact Sequential Cochran-Armitage Trend test (SAS® Institute, 1999). The Cochran-Armitage Trend test was employed to determine whether the proportion of positive or “Yes” responders increases or decreases with increasing levels of treatment. For this particular study, it was expected that the number of animals without joint erosions increased with increasing dose.

Consider `COc1ccc(CNC(=O)c2cc3c(=O)n(Cc4ccc(C(=O)O)cc4)cnc3cn2)cc1` [Compound Example 1, 4-[6-(4-methoxy-benzylcarbamoyl)-4-oxo-4H-pyrido[3,4-d]pyrimidin-3-ylmethyl]-benzoic acid], for which the “cartilage erosion versus vehicle control (in words)” value (2 weeks, 1, 3, 10 and 30 mg/kg orally BID) was “inhibited in a dose dependent manner cartilage erosion”. For the same compound, the “inhibition of cartilage erosion (surface area of erosion) versus vehicle control” value by setting is: (1 mg/kg orally BID) 40.5%; (3 mg/kg orally BID) 55.6%; (10 mg/kg orally BID) 61.6%; (30 mg/kg orally BID) 32.9%. In addition, the “rats in the treatment group that exhibited no cartilage erosion” value reads like this: (1 mg/kg orally BID) 5/12; (3 mg/kg orally BID, p<0.05 versus vehicle) 7/12; (10 mg/kg orally BID, p<0.05 versus vehicle) 7/12; (30 mg/kg orally BID) 4/12.
